These results are taken from patent publication US9765039B2, “Biaryl derivatives as bromodomain inhibitors” (Zenith Epigenetics Ltd., priority 2012, dated 2017).

One series concerns Human AML MV-4-11 cells. Briefly: Inhibition of cell proliferation in cancer cell lines (CellTiter Aqueous One). It counts as cell-based. Further details: key: Active: Compounds with an IC50 value less than 30 μM were deemed to be active.; Not Active: Compounds with an IC50 value less than 30 μM were deemed to be active. The conditions noted are these: 72 hours. The gist of the method: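 Exponentially growing MV-4-11 cells were treated immediately with two-fold compound dilutions from 30 µM to 0.2 µM in triplicate for 72 h at 37 °C. Viability was read by MTS (CellTiter Aqueous One) absorbance at 490 nm after 3-4 h; % proliferation vs DMSO gave IC50.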

The test system of a further series is hApoA-1 mRNA. Briefly: Up-regulation of hApoA-1 mRNA transcription in Huh7 cells. It counts as cell-based, human. Further details: key: Active: Compounds with an EC170 value less than 30 μM are deemed to be active.; Not Active: Compounds with an EC170 value less than 30 μM are deemed to be active. The conditions noted are these: 48 hrs treatment, ApoA-I mRNA. On the procedure:
In this example, ApoA-I mRNA in tissue culture cells was quantitated to measure the transcriptional up-regulation of ApoA-I when treated with a compound of the present disclosure.
Huh7 cells ([…] per well) were plated in a 96-well plate using 100 μL DMEM per well, (Gibco DMEM supplemented with penicillin/streptomycin and 10% FBS), 24 h before the addition of the compound of interest. After 48 hrs treatment, the spent media was removed from the Huh-7 cells and placed on ice (for immediate use) or at −80° C. (for future use) with the “LDH cytotoxicity assay Kit II” from Abcam. The cells remaining in the plate were rinsed with 100 μL PBS.
Then 85 μL of cell lysis solution was added to each well and incubated for 5-10 minutes at room temperature, to allow for complete cell lysis and detachment. mRNA was then prepared using the “mRNA Catcher PLUS plate” from Life Technologies, according to the protocol supplied. After the last wash, as much wash buffer as possible was aspirated without allowing the wells to dry. Elution Buffer (E3, 80 μL) was then added to each well. mRNA was then eluted by incubating the mRNA Catcher PLUS plate with Elution Buffer for 5 minutes at 68° C., and then 1 minute at 4° C. Catcher plates with mRNA eluted were kept on ice for use or stored at −80° C.
The eluted mRNA isolated was then used in a one-step real-time PCR reaction, using components of the Ultra Sense Kit together with Life Technologies primer-probe mixes. Real-time PCR data was analyzed, using the Ct values, to determine the fold induction of each unknown sample, relative to the control (that is, relative to the control for each independent DMSO concentration).
Compounds with an EC170 value less than 30 μM are deemed to be active.

Another series has as its system c-myc. The experiment in a line: Inhibition of c-myc expression in cancer cell lines (mRNA, real-time PCR). It counts as cell-based. Further details: key: Active: Compounds with an IC50 value less than 30 μM were deemed to be active. The conditions noted are these: Human AML MV4-11 cells, 3 hours. Summed up:
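MV4-11 cells (2.5×10^4) exposed to compound or 0.1% DMSO for 3 h at 37° C, then lysed for mRNA isolation. c-myc and cyclophilin cDNAs co-amplified by duplex RT real-time PCR. IC50 from dose-response curve.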
Background: In qPCR the cycle at which signal appears reflects the starting amount.

In the next series the target is T1, Brd4 bromodomain 1 (Homo sapiens, UniProt O60885).
T1 construct: made in house; host or cells: E. coli BL21(DE3)
The experiment in a line: Inhibition of tetra-acetylated histone H4 binding to BET bromodomains (TR-FRET). Further details: key: Active: Compounds with an IC50 value less than 30 μM were deemed to be active.; Not Active: Compounds with an IC50 value less than 30 μM were deemed to be active. The conditions noted are these: first bromodomain of Brd4, tetra-acetylated histone H4 peptide. The gist of the method:
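TR-FRET with N-terminally His-tagged bromodomains (200 nM, E. coli-expressed, Ni affinity and SEC-purified) and biotinylated tetra-acetylated histone H4 peptide (25–50 nM), detected with Eu-cryptate streptavidin and XL665 anti-His antibody. Buffer 30 mM HEPES pH 7.4, 320 mM KF, 0.08% BSA, 0.2% DMSO; 2 h RT. IC50 from decrease in 665/620 nm ratio.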
For orientation: In TR-FRET formats the signal depends on donor and acceptor labels being close together.

A further series relates to hIL-6 mRNA. Briefly: Inhibition of hIL-6 mRNA transcription in LPS-stimulated U937 macrophages. Format: cell-based, human. Also on record: key: Active: Compounds with an IC50 value less than 30 μM are deemed to be active. The conditions noted are these: U937 differentiated into macrophages, 1 h pretreatment, lipopolysaccharide 3 h. Summed up:
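U937 cells differentiated 3 days with 60 ng/mL PMA, pretreated 1 h with compound, then stimulated with […] E. coli LPS for 3 h at 37° C. hIL-6 mRNA quantified by one-step real-time RT-PCR, Ct normalised to internal control and expressed as fold induction relative to control.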

The subject of another series is arthritic rats. Briefly: In vivo efficacy in rat collagen induced arthritis. Further details: species or system female Lewis strain of rats. The conditions noted are these: collagen Day 1 and 7, dosed Day 11 to Day 17. On the procedure: Rat collagen-induced arthritis is an experimental model of polyarthritis that has been widely used for preclinical testing of numerous anti-arthritic agents. Following administration of collagen, this model establishes a measurable polyarticular inflammation, marked cartilage destruction in association with pannus formation and mild to moderate bone resorption and periosteal bone proliferation. In this model, collagen was administered to female Lewis strain of rats on Day 1 and 7 of study and dosed with compounds from Day 11 to Day 17. Compounds were evaluated to assess the potential to inhibit the inflammation (including paw swelling), cartilage destruction and bone resorption in arthritic rats, using a model in which the treatment is administered after the disease has been established.

The test system of a further series is IL-6. The experiment in a line: In vivo efficacy in mouse endotoxemia model (IL-6). The conditions noted are these: C57/B16 mice; orally at 75 mg/kg; 4 hour challenge with LPS 0.5 mg/kg intraperitoneally. On the procedure: Sub lethal doses of Endotoxin (E. coli bacterial lipopolysaccharide) were administered to animals to produce a generalized inflammatory response which was monitored by increases in secreted cytokines. Compounds were administered to C57/B16 mice orally at 75 mg/kg dose to evaluate inhibition in IL-6 and IL-17 cytokines post 4 hour challenge with Lipopolysaccharide (LPS) at 0.5 mg/kg dose intraperitoneally.

As a reminder, the melting point is the temperature, or range, at which the solid turns liquid. Take `COc1cc(OC)c2c(=O)[nH]c(-c3ccc(OC)c(-c4ccc([S+](C)[O-])cc4)n3)nc2c1` (stereo not shown) [Example 50, 5,7-Dimethoxy-2-(5-methoxy-6-(4-(methylsulfinyl)phenyl)pyridin-2-yl)quinazolin-4(3H)-one]: the melting point was in the range of 266 to 267 °C. The “cell proliferation activity (IC50 < 30 μM)” value (from here on “cell proliferation activity”) in the series on Human AML MV-4-11 cells is reported as “Active”. Also, the “ApoA-1 Activity (EC170 < 30 μM)” value in the series on hApoA-1 mRNA is on record as “Active”. Besides, the “c-myc activity (IC50 < 30 μM)” value in the series with c-myc is reported as “Active”. In addition, the “FRET activity (IC50 < 30 μM)” value on Brd4 bromodomain 1 is listed as “Active”. Also, the “IL-6 activity (IC50 < 30 μM)” value in the series on hIL-6 mRNA is given as “Active”. Further, the “In vivo Activity” value with arthritic rats is “Active”.
Turning to `COc1cc(OC)c2c(=O)[nH]c(-c3ccc(OCCNC(C)C)c(-c4ccc(S(C)(=O)=O)cc4)n3)nc2c1` [Example 27, 2-(5-(2-(Isopropylamino)ethoxy)-6-(4-(methylsulfonyl)phenyl)pyridin-2-yl)-5,7-dimethoxyquinazolin-4(3H)-one], in the series on Human AML MV-4-11 cells, the “cell proliferation activity” value is “Active”. Also, the “ApoA-1 Activity (EC170 < 30 μM)” value in the series with hApoA-1 mRNA is listed as “Active”. In the series on c-myc, the “c-myc activity (IC50 < 30 μM)” value is “Active”. Besides, at Brd4 bromodomain 1, the “FRET activity (IC50 < 30 μM)” value is “Active”. Moreover, the “IL-6 activity (IC50 < 30 μM)” value in the series with hIL-6 mRNA was “Active”. In the series with IL-6, the “In vivo Activity (IL-6)” value is given as “Active”.
`COc1cc(OC)c2c(=O)[nH]c(-c3ccc(OCCO)c(-c4ccc([S+](C)[O-])cc4)n3)nc2c1` (stereo not shown) [Example 38, 2-(5-(2-Hydroxyethoxy)-6-(4-(methylsulfinyl)phenyl)pyridin-2-yl)-5,7-dimethoxyquinazolin-4(3H)-one]: the melting point lay in the range of 281 to 282 °C. The “cell proliferation activity” value with Human AML MV-4-11 cells is “Active”. In addition, the “ApoA-1 Activity (EC170 < 30 μM)” value in the series with hApoA-1 mRNA is given as “Active”. For the same compound, the “c-myc activity (IC50 < 30 μM)” value with c-myc is on record as “Active”. Also, the “FRET activity (IC50 < 30 μM)” value on Brd4 bromodomain 1 is listed as “Active”. The “IL-6 activity (IC50 < 30 μM)” value in the series with hIL-6 mRNA is “Active”.
With `COc1cc(OC)c2c(=O)[nH]c(-c3ccc(OCCNC(C)C)c(-c4cccc([S+](C)[O-])c4)n3)nc2c1` (stereo not shown) [Example 40, 2-(5-(2-(Isopropylamino)ethoxy)-6-(3-(methylsulfinyl)phenyl)pyridin-2-yl)-5,7-dimethoxyquinazolin-4(3H)-one], the melting point is 156 to 157 °C. Besides, the “cell proliferation activity” value with Human AML MV-4-11 cells is reported as “Active”. Moreover, the “ApoA-1 Activity (EC170 < 30 μM)” value with hApoA-1 mRNA is listed as “Active”. In the series on c-myc, the “c-myc activity (IC50 < 30 μM)” value is “Active”. Besides, the “FRET activity (IC50 < 30 μM)” value at Brd4 bromodomain 1 is “Active”. For the same compound, the “IL-6 activity (IC50 < 30 μM)” value with hIL-6 mRNA was “Active”.
